The test system of the experiment is Jurkat cells. Briefly: ECMP attachment screen for Jurkat cell attachment on hydrogel array spots. It is filed as cell-based, human. The conditions noted are these: printed alone in a 400 μm spot on hydrogel coated slide; nuclear fluorescence (DraQ) after 3 hours of attachment. The procedure: In certain embodiments, stock solutions of extracellular matrix (ECM) components (0.01 mg/ml-1 mg/ml), such as Collagen I, III, IV, V, VI, Fibronectin, Laminin, and the like, as well as Hyaluronic Acid, gelatin and BSA (negative control) are mixed 1:1 with 200 mM acetate, 10 mM EDTA, 40% (v/v) glycerol, and 0.5% (v/v) Triton X-100 in MQH2O, at pH 4.9. Individual and combinations of different components are mixed in 384-well plates. This ECM based array is used to screen for the optimal cell attachment conditions.
The human acute T cell leukemia Jurkat cell line (ATTC Number TIB-153) was purchased from American Type Culture Collection (ATCC). Cells were cultured in RPMI-1640, supplemented with 10% FBS, 2 mmol/liter glutamin and antibiotics (100 IU/ml of penicillin G) and incubated at 37° C. in a humidified atmosphere of 5% CO2. […]
FIG. 3, for example, summarizes the attachment components that were identified to support Jurkat cell attachment on invention arrays. Briefly, Jurkat nuclear intensity was monitored by fluorescence using DraQ staining after 3 hours of attachment. The slides were read using a […] and fluorescence was quantified using the Genepix 2.0 software. […]

Regarding Fibronectin, the Jurkat cell attachment entry is “consistently supported attachment of Jurkat cells”.

These data come from US20130130376A1, “SCREENING METHODS, COMPOSITIONS IDENTIFIED THEREBY, TOOLS USEFUL FOR THE IDENTIFICATION THEREOF, AND CELL POPULATIONS PRODUCED THEREBY” (priority 2010, published 2013).
